Source: patent US5344926A, “Process for producing staurosporine derivatives” (Kyowa Hakko Kogyo Co., Ltd., priority 1992, dated 1994)
Values after ≈ are worked out from the molar mass of the structure shown. Values joined by “and” are separate entries in the source; they are usually repeats but may differ in a detail not shown here. Identical values can stand only once. Blank lines part the entries; values can stand above or below the compound they belong to.

Legend:
Protein kinase A = target: T1, Protein kinase A (Bos taurus, UniProt P00517); experiment: Protein Kinase A Inhibitory Activity (crude enzyme partially purified from calf heart); type: biochemical; settings: pH 6.8
T1 construct: partially purified from calf heart; from tissue; host or cells: calf heart, crude enzyme, partially purified
Procedure: (2) Protein Kinase A Inhibitory Activity
Protein kinase A inhibitory activity (PKA) was measured according to the method of Kuo, et al. [Biochemistry, 64, 1349 (1969)].
Subsequent procedures were conducted in a manner similar to the case of measuring protein kinase C inhibitory activity described above to determine IC50.

Protein kinase C = experiment: Protein Kinase C Inhibitory Activity (crude enzyme partially purified from rat brain); settings: for selective inhibitory activity on protein kinase C, compared with UCN-01: PKC vs PKA; for IC50 PKC: pH 7.5, 30° C., 3 minutes; for PKA/PKC: ratio of IC50 PKA to IC50 PKC
Procedure: (1) Protein Kinase C Inhibitory Activity
Protein kinase C inhibitory activity (PKC) was measured by the method of Kikkawa, et al. (Journal of Biological Chemistry, 257, 13341 (1982)].
That is, 10 μl of a test solution containing UCN-01, Compound No. 1-α or Compound No. 1-β was added to 250 μl of a solution containing 2.5 μmoles of magnesium acetate, 50 μg of Histone Type IIS (manufactured by Sigma Co., Ltd.), 20 μg of phosphatidyl serine, 0.8 μg of diolein, 25 nmoles of CaCl2, 5 μg of crude enzyme (partically purified from rat brain according to the method of Kikkawa, et al.) and 5 μmoles of Tris-hydrochloride buffer (pH 7.5), followed by incubation at 30° C. for 3 minutes. Then, phosphorylation was initiated by addition of 1.25 nmoles of [γ-^32 p]ATP(5 to 10×10^3 cpm/nmole), followed by incubation at 30° C. for 3 minutes. The reaction was stopped by adding 25% trichloroacetic acid (TCA), and the reaction solution was filtered through a cellulose acetate membrane (pore size of 0.45 μm) (manufactured by Toyo Filter Paper Co., Ltd.). After the membrane was washed four times with 5% TCA, radioactivity remaining on the membrane was measured. As a control, the same procedure as above was repeated without addition of the test solution and radioactivity was likewise measured. A concentration of the test solution showing 50% inhibition as compared with the control was expressed as IC50.

platelets = experiment: Platelet increasing activity in Balb/c mice; type: in vivo; settings: 20 mg/kg i.p. once a day for 5 days; for Number of platelets, individual mouse: 20 mg/kg; for Number of platelets (mean): mean of six mice
Procedure: Platelet increasing activity of Compound (I-1) was examined. Compound No. 1-α obtained in Example 13 was suspended in 0.3% carboxymethylcellulose aqueous solution containing 5% Tween 80. 0.2 ml of the suspension was intraperitoneally administered to six Balb/c mice (male, aged 7 weeks) at a dosage of 20 mg/kg once a day for 5 days. The blood (20 μl) was collected from the ophthalmic […] at the times, just before the test compound administration (Day 0), the 7th day (Day 7), the 14th day (Day 14), the 17th day (Day 17) and the 28th day (Day 28). The number of platelets was counted by a microcellcounter.

HeLa S3 cells = experiment: Growth Inhibition Test on HeLa S3 Cells; type: cell-based; settings: Homo sapiens, 1 h exposure, then 72 h incubation, Neutral Red, read-out: IC50 (cell growth inhibition)
Procedure: Growth Inhibition Test on HeLa S3 Cells
HaLa S3 cells were suspended in an MEM medium containing 10% fetal calf serum and 2 mM glutamine at a concentration of 3×10^4 cells/ml, and 0.1 ml of the cell suspension was put into each well of a 96-well microtiter plate.
After culturing at 37° C. overnight in a carbon dioxide gas incubator, 0.05 ml of a test sample appropriately diluted with the medium was added to each well. The cells were further cultured for one hour in the carbon dioxide gas incubator and the culture supernatant was removed. The residue was washed once with a phosphate buffer saline [PBS(-)] and 0.1 ml of a fresh medium was added to each well, and the cells were further incubated at 37° C. for 72 hours in the carbon dioxide gas incubator. After removal of the supernatant, 0.1 ml of culture medium containing 0.02% Neutral Red was added to each well, and the cells were further incubated at 37° C. for one hour in the carbon dioxide gas incubator to stain the cells. After removal of the culture supernatant, each well was washed once with a physiological saline, and the dye was extracted with 0.001N HCl/30% methanol. Absorbance of the extract at 550 nm was measured with a microplate reader. The cell growth inhibition percentage was calculated according to the following formula from the absorbance of the extract of the cells treated with the test compound in various concentrations and that of intact cells. [formula]
From the cell growth inhibition percentage thus obtained, the concentration of the test compound which inhibits cell growth by 50% (IC50) was determined.

[1] = Day 0 (just before administration)

IC50 (Protein kinase A): 494 nM
IC50 PKC (Protein kinase C): 2.2 ng/mL (≈ 4.18 nM)
PKA/PKC (Protein kinase C): 118
SMILES: COC1C(N(C)CCO)CC2OC1(C)n1c3ccccc3c3c4c(c5c6ccccc6n2c5c31)C(=O)NC4O (stereo not drawn) [Compound No. 1-α]
selective inhibitory activity on protein kinase C, compared with UCN-01 (Protein kinase C): have a selective inhibitory activity on protein kinase C, compared with UCN-01
Number of platelets, relative value (platelets; Day 0 (= 100)): 100%
Number of platelets, individual mouse (platelets; [1]): 81.8 and 89.6 and 75.0 and 89.7 and 97.0 and 86.5
Number of platelets (mean) (platelets; [1]): 86.6
Number of platelets, relative value (platelets; Day 7, relative to Day 0): 156.4%
Number of platelets, individual mouse (platelets; Day 7): 128.3 and 119.2 and 130.1 and 153.8 and 141.0 and 140.1
Number of platelets (mean) (platelets; Day 7): 135.4
Number of platelets, relative value (platelets; Day 14, relative to Day 0): 139.8%
Number of platelets, individual mouse (platelets; Day 14): 113.7 and 122.5 and 118.8 and 145.9 and 121.2 and 101.7
Number of platelets (mean) (platelets; Day 14): 121.1
Number of platelets, relative value (platelets; Day 17, relative to Day 0): 146.7%
Number of platelets, individual mouse (platelets; Day 17): 115.0 and 113.6 and 111.9 and 159.1 and 137.1 and 125.5
Number of platelets (mean) (platelets; Day 17): 127.0
Number of platelets, relative value (platelets; Day 28, relative to Day 0): 135.1%
Number of platelets, individual mouse (platelets; Day 28): 117.3 and 123.5 and 119.0 and 113.7 and 105.8 and 125.3
Number of platelets (mean) (platelets; Day 28): 117.4

IC50 (HeLa S3 cells): 2200 nM
SMILES: COC1C(N(C)CCO)CC2OC1(C)n1c3ccccc3c3c4c(c5c6ccccc6n2c5c31)C(=O)NC4O (stereo not drawn) [Compound No. 1]

IC50 (HeLa S3 cells): 1900 nM
SMILES: COC1C(N(C)CC(O)CO)CC2OC1(C)n1c3ccccc3c3c4c(c5c6ccccc6n2c5c31)C(=O)NC4O (stereo not drawn) [Compound No. 2]

IC50 (HeLa S3 cells): 4600 nM
SMILES: COC1C(N(C)CCCC(=O)O)CC2OC1(C)n1c3ccccc3c3c4c(c5c6ccccc6n2c5c31)C(=O)NC4O (stereo not drawn) [Compound No. 3]

IC50 (Protein kinase A): 703 nM
IC50 PKC (Protein kinase C): 19 ng/mL (≈ 36.1 nM)
PKA/PKC (Protein kinase C): 20
SMILES: COC1C(N(C)CCO)CC2OC1(C)n1c3ccccc3c3c4c(c5c6ccccc6n2c5c31)C(=O)NC4O (stereo not drawn) [Compound No. 1-β]
selective inhibitory activity on protein kinase C, compared with UCN-01 (Protein kinase C): have a selective inhibitory activity on protein kinase C, compared with UCN-01

SMILES: CN[C@@H]1C[C@H]2O[C@@](C)([C@@H]1OC)n1c3ccccc3c3c4c(c5c6ccccc6n2c5c31)C(=O)N[C@@H]4O [UCN-01, reference compound]
IC50 PKC (Protein kinase C): 2 ng/mL (≈ 4.14 nM)
PKA/PKC (Protein kinase C): 10

IC50 (HeLa S3 cells): 1500 nM
SMILES: COC1C(N(C)C(=O)CN(C)C)CC2OC1(C)n1c3ccccc3c3c4c(c5c6ccccc6n2c5c31)C(=O)NC4O (stereo not drawn) [Compound No. 7]

IC50 (HeLa S3 cells): 2200 nM
SMILES: COC1C(N(C)C(=O)CN2CCOCC2)CC2OC1(C)n1c3ccccc3c3c4c(c5c6ccccc6n2c5c31)C(=O)NC4O (stereo not drawn) [Compound No. 6]
